“And” between values parts separate entries of the source, which are not always exact repeats. Equal entries are not always repeated.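 48-hour exposure; five concentrations; linearly interpolated endpoints. GI50 = concentration required for 50% inhibition of growth. The concentration for full growth arrest is given as TGI.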
Experiments:
Test in all cases: NCI tumour cell line growth inhibition, 48 h
LXFL 529 NSCLC = system: LXFL 529 NSCLC
UACC-62 melanoma = system: UACC-62 melanoma
MDA-MB-231 breast = system: MDA-MB-231 breast
HCT-116 colon = system: HCT-116 colon
RXF-631 renal = system: RXF-631 renal
SF-539 CNS = system: SF-539 CNS
OVCAR-5 ovarian = system: OVCAR-5 ovarian
SW-620 colon = system: SW-620 colon
COLO 205 colon = system: COLO 205 colon
NCI-H226 lung = system: NCI-H226 lung
HS 578T breast = system: HS 578T breast
ACHN renal = system: ACHN renal
CAKI-1 renal = system: CAKI-1 renal
OVCAR-8 ovarian = system: OVCAR-8 ovarian
K-562 leukemia = system: K-562 leukemia
PC-3 prostate = system: PC-3 prostate
M14 melanoma = system: M14 melanoma
CCRF-CEM leukemia = system: CCRF-CEM leukemia
MALME-3M melanoma = system: MALME-3M melanoma
NCI-H460 lung = system: NCI-H460 lung
SR leukemia = system: SR leukemia
HT29 colon = system: HT29 colon
RXF 393 renal = system: RXF 393 renal
M19-MEL melanoma = system: M19-MEL melanoma
A498 renal = system: A498 renal
A549 NSCLC = system: A549 NSCLC
KM12 colon = system: KM12 colon
UO-31 renal = system: UO-31 renal
P388 leukemia = system: P388 leukemia
T-47D breast = system: T-47D breast
SF-295 CNS = system: SF-295 CNS
U251 CNS = system: U251 CNS
SF-268 CNS = system: SF-268 CNS

## O=C(O)CCCc1ccc(N(CCCl)CCCl)cc1
LXFL 529 NSCLC
  GI50: 19.5 µM
  TGI: 35.4 µM and 199 µM
UACC-62 melanoma
  TGI: 23.1 µM and 106 µM and 202 µM
MDA-MB-231 breast
  GI50: 265 µM
  TGI: 334 µM and 606 µM
HCT-116 colon
  GI50: 23 µM and 144 µM
  TGI: 63 µM and 389 µM and 328 µM
RXF-631 renal
  GI50: 19.7 µM
  TGI: 47.7 µM and 277 µM
SF-539 CNS
  GI50: 7.28 µM and 18.2 µM
  TGI: 26.9 µM and 99.4 µM and 89.6 µM
OVCAR-5 ovarian
  GI50: 20.6 µM and 173 µM
  TGI: 45.4 µM and 274 µM and 374 µM
SW-620 colon
  GI50: 13.8 µM and 107 µM
  TGI: 51.4 µM and 356 µM and 399 µM
COLO 205 colon
  GI50: 22.6 µM and 201 µM
  TGI: 45.9 µM and 271 µM and 333 µM
NCI-H226 lung
  GI50: 16.1 µM and 120 µM
  TGI: 42.4 µM and 276 µM and 362 µM
HS 578T breast
  TGI: 570 µM and 312 µM
ACHN renal
  GI50: 4.21 µM
  TGI: 30.3 µM and 180 µM
CAKI-1 renal
  GI50: 5.86 µM
  TGI: 28.1 µM and 146 µM and 247 µM
OVCAR-8 ovarian
  GI50: 17.5 µM and 68 µM
  TGI: 57.8 µM and 366 µM and 159 µM
K-562 leukemia
  GI50: 21.7 µM and 152 µM
  TGI: 88.5 µM and 462 µM and 625 µM
PC-3 prostate
  GI50: 210 µM
  TGI: 416 µM and 609 µM
M14 melanoma
  GI50: 14.9 µM and 91.3 µM
CCRF-CEM leukemia
  GI50: 0.881 µM
  TGI: 34.2 µM and 170 µM and 18.6 µM
MALME-3M melanoma
  GI50: 10.3 µM and 97.8 µM
  TGI: 26.3 µM and 188 µM and 141 µM
NCI-H460 lung
  GI50: 2.13 µM
  TGI: 44.5 µM and 228 µM
SR leukemia
  GI50: 0.922 µM
HT29 colon
  GI50: 19.9 µM and 173 µM
  TGI: 59.3 µM and 486 µM and 518 µM
RXF 393 renal
  GI50: 9.53 µM and 57.7 µM
  TGI: 23 µM and 118 µM and 97.7 µM
M19-MEL melanoma
  GI50: 22.3 µM
  TGI: 51.8 µM and 238 µM
A498 renal
  GI50: 28.3 µM
  TGI: 48.4 µM and 302 µM
A549 NSCLC
  GI50: 12.7 µM and > 89.5 µM
  TGI: > 92.2 µM and 633 µM and 621 µM
KM12 colon
  TGI: 57.8 µM and 351 µM and 485 µM
UO-31 renal
  GI50: 9.38 µM and 32 µM
  TGI: 34.7 µM and 272 µM and 56.2 µM
P388 leukemia
  TGI: 135 µM
T-47D breast
  GI50: 27.3 µM
  TGI: 333 µM and 292 µM
SF-295 CNS
  GI50: 11.7 µM and 64.6 µM
U251 CNS
  TGI: 29.9 µM and 219 µM and 251 µM
SF-268 CNS
  GI50: 4.91 µM
